The results in this text go back to patent US20260171190A1, “ASSESSMENT OF GR CELLULAR SIGNALING PATHWAY ACTIVITY USING MATHEMATICAL MODELLING OF TARGET GENE EXPRESSION” (priority 2021, published 2026).

Structures are written as SMILES. Where two headings read alike, the source gives them in different places.

The test system of this assay is GR cellular signaling pathway.

Protocol: Triple Negative Breast cancer cell line (MDA-MB-231) treated for 4, 8, 12 hrs with vehicle, 100 nM dexamethasone, 100 nM dexamethasone and 100 nM mifrepristone (GCR antagonist), or 100 nM dexamethasone and 100 nM CORT108297 (GCR antagonist).
GR pathway activity scores are presented on a normalized 0-100 scale.

`CCOC[C@]12Cc3cnn(-c4ccc(F)cc4)c3C=C1CCN(S(=O)(=O)c1ccc(C(F)(F)F)cc1)C2` [CORT108297]: under “MDA-MB-231, 100 nM dexamethasone and 100 nM antagonist, 4, 8, 12 hrs”, the “antagonism of the dexamethasone effect on GR pathway activity” value is recorded as “minimally effective”. Consider `CC#C[C@]1(O)CC[C@H]2[C@@H]3CCC4=CC(=O)CCC4=C3[C@@H](c3ccc(N(C)C)cc3)C[C@@]21C` [Mifrepristone], for which the “antagonism of the dexamethasone effect on GR pathway activity” value is recorded as “strong dexamethasone antagonist”.
